# Measurements reported in patent publication US20220119354A1, “DIAMINO-SUBSTITUTED PYRIDINES AND PYRIMIDINES AS HERBICIDES” (FMC Corporation, priority 2019, published 2022).
# What was measured:
# Type in all cases: in vivo
# [1] = test system: kochia (Kochia scoparia); experiment: Test A preemergence, kochia; settings: 0 to 100 scale, 0 is no effect, 100 is complete control
# Summary of the method: (§1)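 0–100 visual control rating, ~10 d post-treatment, greenhouse. Pre = directed soil spray on seeded loam/sand; post = spray at 1–2 leaf stage. Surfactant-containing solvent formulation.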
# [2] = test system: pigweed (Amaranthus retroflexus); experiment: Test A postemergence, pigweed; settings: 0 to 100 scale; for Plant response rating, Pigweed: 125 g ai/ha, 0 no effect, 100 complete control; for Pigweed plant response rating: 500 g ai/ha, 0 is no effect, 100 is complete control
# Summary of the method: as §1
# [3] = test system: foxtail, giant (Setaria faberii); experiment: Test A postemergence, giant foxtail; settings: 0 to 100 scale; for Plant response rating, Foxtail, Giant: 125 g ai/ha, 0 no effect, 100 complete control; for Foxtail, Giant plant response rating: 500 g ai/ha, 0 is no effect, 100 is complete control
# Summary of the method: as §1
# [4] = test system: blackgrass (Alopecurus myosuroides); experiment: Test A postemergence, blackgrass; settings: 0 to 100 scale; for Plant response rating, Blackgrass: 125 g ai/ha, 0 no effect, 100 complete control; for Blackgrass plant response rating: 500 g ai/ha, 0 is no effect, 100 is complete control
# Summary of the method: as §1
# [5] = test system: wheat (Triticum aestivum); experiment: Test A postemergence, wheat; settings: 0 to 100 scale; for Plant response rating, Wheat: 125 g ai/ha, 0 no effect, 100 complete control; for Wheat plant response rating: 500 g ai/ha, 0 is no effect, 100 is complete control
# Summary of the method: as §1
# [6] = test system: ragweed (common ragweed, Ambrosia elatior); experiment: Test A postemergence, ragweed; settings: 0 to 100 scale; for Plant response rating, Ragweed: 125 g ai/ha, 0 no effect, 100 complete control; for Ragweed plant response rating: 500 g ai/ha, 0 is no effect, 100 is complete control
# Summary of the method: as §1
# [7] = test system: sedge, umbrella (small-flower umbrella sedge, Cyperus difformis); experiment: Test B flooded paddy test, umbrella sedge; settings: Flood, 250 g ai/ha, applied to paddy water, 2-leaf stage, visual evaluation after 13 to 15 d
# Summary of the method: (§2)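 Each response is a visual 0–100 rating made against untreated controls, where 0 is no effect and 100 is complete control; a dash marks no result. Compound was dosed into 3 cm paddy water over 2-leaf plants, assessed after 13 to 15 d.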
# [8] = test system: rice (Oryza sativa); experiment: Test B flooded paddy test, rice; settings: Flood, 250 g ai/ha, applied to paddy water, 2-leaf stage, visual evaluation after 13 to 15 d
# Summary of the method: as §2
# [9] = test system: barnyardgrass (Echinochloa crus-galli); experiment: Test A postemergence, barnyardgrass; settings: 0 to 100 scale; for Plant response rating, Barnyardgrass: 125 g ai/ha, 0 no effect, 100 complete control; for Barnyardgrass plant response rating: 500 g ai/ha, 0 is no effect, 100 is complete control
# Summary of the method: as §1
# [10] = test system: foxtail, giant (Setaria faberii); experiment: Test A preemergence, giant foxtail; settings: 0 to 100 scale, 0 is no effect, 100 is complete control
# Summary of the method: as §1
# [11] = test system: ryegrass, Italian (Lolium multiflorum); experiment: Test A preemergence, Italian ryegrass; settings: 0 to 100 scale, 0 is no effect, 100 is complete control
# Summary of the method: as §1
# [12] = test system: barnyardgrass (Echinochloa crus-galli); experiment: Test B flooded paddy test, barnyardgrass; settings: Flood, 250 g ai/ha, applied to paddy water, 2-leaf stage, visual evaluation after 13 to 15 d
# Summary of the method: as §2
# [13] = test system: kochia (Kochia scoparia); experiment: Test A postemergence, kochia; settings: 0 to 100 scale; for Plant response rating, Kochia: 125 g ai/ha, 0 no effect, 100 complete control; for Kochia plant response rating: 500 g ai/ha, 0 is no effect, 100 is complete control
# Summary of the method: as §1
# [14] = test system: pigweed (Amaranthus retroflexus); experiment: Test A preemergence, pigweed; settings: 0 to 100 scale, 0 is no effect, 100 is complete control
# Summary of the method: as §1
# [15] = test system: ragweed (common ragweed, Ambrosia elatior); experiment: Test A preemergence, ragweed; settings: 0 to 100 scale, 0 is no effect, 100 is complete control
# Summary of the method: as §1
# [16] = test system: ryegrass, Italian (Lolium multiflorum); experiment: Test A postemergence, Italian ryegrass; settings: 0 to 100 scale; for Plant response rating, Ryegrass, Italian: 125 g ai/ha, 0 no effect, 100 complete control; for Ryegrass, Italian plant response rating: 500 g ai/ha, 0 is no effect, 100 is complete control
# Summary of the method: as §1
# [17] = test system: barnyardgrass (Echinochloa crus-galli); experiment: Test A preemergence, barnyardgrass; settings: 0 to 100 scale, 0 is no effect, 100 is complete control
# Summary of the method: as §1
# [18] = test system: ducksalad (Heteranthera limosa); experiment: Test B flooded paddy test, ducksalad; settings: Flood, 250 g ai/ha, applied to paddy water, 2-leaf stage, visual evaluation after 13 to 15 d
# Summary of the method: as §2
# [19] = test system: galium (catchweed bedstraw, Galium aparine); experiment: Test A postemergence, galium; settings: 0 to 100 scale; for Plant response rating, Galium: 125 g ai/ha, 0 no effect, 100 complete control; for Galium plant response rating: 500 g ai/ha, 0 is no effect, 100 is complete control
# Summary of the method: as §1
# [20] = test system: corn (Zea mays); experiment: Test A postemergence, corn; settings: 0 to 100 scale; for Plant response rating, Corn: 125 g ai/ha, 0 no effect, 100 complete control; for Corn plant response rating: 500 g ai/ha, 0 is no effect, 100 is complete control
# Summary of the method: as §1
SMILES,Kochia plant response rating ([1]; 125 g ai/ha),Kochia plant response rating ([1]; 500 g ai/ha),"Plant response rating, Pigweed [2]",Pigweed plant response rating [2],"Plant response rating, Foxtail, Giant [3]","Foxtail, Giant plant response rating [3]","Plant response rating, Blackgrass [4]",Blackgrass plant response rating [4],"Plant response rating, Wheat [5]",Wheat plant response rating [5],"Plant response rating, Ragweed [6]",Ragweed plant response rating [6],"Plant response rating, Sedge, Umbrella (0 to 100 scale, 0 is no effect, 100 is complete control) [7]","Plant response rating, Rice (0 to 100 scale, 0 is no effect, 100 is complete control) [8]","Plant response rating, Barnyardgrass [9]",Barnyardgrass plant response rating [9],"Foxtail, Giant plant response rating ([10]; 125 g ai/ha)","Foxtail, Giant plant response rating ([10]; 500 g ai/ha)","Ryegrass, Italian plant response rating ([11]; 125 g ai/ha)","Ryegrass, Italian plant response rating ([11]; 500 g ai/ha)",further results
CC[C@@H](Nc1ncc(C(F)(F)F)c(N)n1)c1cc2ccccc2s1 [Compound 43],90,100,100,100,30,100,0,20,0,0,60,90,0,0,20,100,80,90,20,50,"Plant response rating, Barnyardgrass (0 to 100 scale, 0 is no effect, 100 is complete control) [12]: 0; Plant response rating, Kochia [13]: 90; Kochia plant response rating [13]: 90; Pigweed plant response rating ([14]; 125 g ai/ha): 90; Pigweed plant response rating ([14]; 500 g ai/ha): 100; Ragweed plant response rating ([15]; 125 g ai/ha): 100; Ragweed plant response rating ([15]; 500 g ai/ha): 100; Plant response rating, Ryegrass, Italian [16]: 40; Ryegrass, Italian plant response rating [16]: 40; Barnyardgrass plant response rating ([17]; 125 g ai/ha): 70; Barnyardgrass plant response rating ([17]; 500 g ai/ha): 70; Plant response rating, Ducksalad (0 to 100 scale, 0 is no effect, 100 is complete control) [18]: 0; Plant response rating, Galium [19]: 70; Galium plant response rating [19]: 90; Plant response rating, Corn [20]: 0; Corn plant response rating [20]: 20"
CC[C@H](Nc1ncc(C(F)(F)F)c(N)n1)c1cc2ccccc2s1 [Compound 44],0,0,0,60,0,10,0,20,0,0,0,0,0,0,0,0,0,20,0,0,"Plant response rating, Barnyardgrass (0 to 100 scale, 0 is no effect, 100 is complete control) [12]: 0; Plant response rating, Kochia [13]: 0; Kochia plant response rating [13]: 50; Pigweed plant response rating ([14]; 125 g ai/ha): 20; Pigweed plant response rating ([14]; 500 g ai/ha): 20; Ragweed plant response rating ([15]; 125 g ai/ha): 20; Ragweed plant response rating ([15]; 500 g ai/ha): 50; Plant response rating, Ryegrass, Italian [16]: 0; Ryegrass, Italian plant response rating [16]: 0; Barnyardgrass plant response rating ([17]; 125 g ai/ha): 0; Barnyardgrass plant response rating ([17]; 500 g ai/ha): 40; Plant response rating, Ducksalad (0 to 100 scale, 0 is no effect, 100 is complete control) [18]: 0; Plant response rating, Galium [19]: 0; Galium plant response rating [19]: 0; Plant response rating, Corn [20]: 0; Corn plant response rating [20]: 0"
C[C@@H](Nc1ncc(C(F)(F)F)c(N)n1)c1cc2ccc(F)cc2s1 [Compound 46],90,100,100,100,10,60,20,30,0,0,50,80,95,10,20,60,70,100,20,80,"Plant response rating, Barnyardgrass (0 to 100 scale, 0 is no effect, 100 is complete control) [12]: 40; Plant response rating, Kochia [13]: 90; Kochia plant response rating [13]: 90; Pigweed plant response rating ([14]; 125 g ai/ha): 100; Pigweed plant response rating ([14]; 500 g ai/ha): 100; Ragweed plant response rating ([15]; 125 g ai/ha): 80; Ragweed plant response rating ([15]; 500 g ai/ha): 100; Plant response rating, Ryegrass, Italian [16]: 0; Ryegrass, Italian plant response rating [16]: 40; Barnyardgrass plant response rating ([17]; 125 g ai/ha): 20; Barnyardgrass plant response rating ([17]; 500 g ai/ha): 90; Plant response rating, Ducksalad (0 to 100 scale, 0 is no effect, 100 is complete control) [18]: 30; Plant response rating, Galium [19]: 60; Galium plant response rating [19]: 90; Plant response rating, Corn [20]: 0; Corn plant response rating [20]: 60"
C[C@H](Nc1ncc(C(F)(F)F)c(N)n1)c1cc2ccc(F)cc2s1 [Compound 47],0,0,20,80,0,0,0,30,0,0,0,0,0,0,0,0,0,0,0,0,"Plant response rating, Barnyardgrass (0 to 100 scale, 0 is no effect, 100 is complete control) [12]: 0; Plant response rating, Kochia [13]: 0; Kochia plant response rating [13]: 60; Pigweed plant response rating ([14]; 125 g ai/ha): 0; Pigweed plant response rating ([14]; 500 g ai/ha): 30; Ragweed plant response rating ([15]; 125 g ai/ha): 0; Ragweed plant response rating ([15]; 500 g ai/ha): 0; Plant response rating, Ryegrass, Italian [16]: 0; Ryegrass, Italian plant response rating [16]: 0; Barnyardgrass plant response rating ([17]; 125 g ai/ha): 0; Barnyardgrass plant response rating ([17]; 500 g ai/ha): 0; Plant response rating, Ducksalad (0 to 100 scale, 0 is no effect, 100 is complete control) [18]: 0; Plant response rating, Galium [19]: 0; Galium plant response rating [19]: 0; Plant response rating, Corn [20]: 0; Corn plant response rating [20]: 0"
CC[C@@H](Nc1ncc(C(F)(F)F)c(N)n1)c1cc2ccc(F)cc2s1 [Compound 48],0,80,90,100,10,30,30,30,0,0,20,70,0,0,0,30,60,90,0,60,"Plant response rating, Barnyardgrass (0 to 100 scale, 0 is no effect, 100 is complete control) [12]: 0; Plant response rating, Kochia [13]: 30; Kochia plant response rating [13]: 90; Pigweed plant response rating ([14]; 125 g ai/ha): 60; Pigweed plant response rating ([14]; 500 g ai/ha): 100; Ragweed plant response rating ([15]; 125 g ai/ha): 30; Ragweed plant response rating ([15]; 500 g ai/ha): 100; Plant response rating, Ryegrass, Italian [16]: 0; Ryegrass, Italian plant response rating [16]: 40; Barnyardgrass plant response rating ([17]; 125 g ai/ha): 0; Barnyardgrass plant response rating ([17]; 500 g ai/ha): 40; Plant response rating, Ducksalad (0 to 100 scale, 0 is no effect, 100 is complete control) [18]: 0; Plant response rating, Galium [19]: 60; Galium plant response rating [19]: 90; Plant response rating, Corn [20]: 0; Corn plant response rating [20]: 30"
